Laboratory results as given in patent US20010034362A1, “Pyrrolidine derivatives for vision and memory disorders” (Guilford Pharmaceuticals Inc., priority 1998, published 2001).
Marks after values point to notes of the source that are not given here.

Experiments:
[1] = system: retinal ganglion cells, optic nerve axons and myelin; test: Retinal ischemia by raised intraocular pressure, examined 28 days after the episode; format: in vivo, adult rats
Excerpt: Retinal ganglion cells were retrogradely labeled in adult rats by bilateral injection of fluorogold in their lateral geniculate nuclei. Labeled ganglion cells in the normal rat retina appear as white profiles against the dark background (FIG. 1A). Complete retinal ischemia was produced by infusing normal saline solution into the retinal vitreous cavity of each eye until the intraocular pressure exceeded arterial blood pressure. 28 days after the ischemic episode extensive degeneration of retinal ganglion cell was evidenced by massive reduction in the density of fluorogold labeled cells (FIG. 1B).
Optic nerves from vehicle treated cases examined 28 days after a 1 hour retinal ischemic episode are characterized by a decreased density of optic nerve axons and the appearance of numerous degenerating myelin figures (bright white filled circles).

[2] = system: retinal ganglion cell axons; test: Protection of retinal ganglion cell axons from degeneration following optic nerve transection (Table V); format: in vivo; conditions: ± SEM
Excerpt: Efficacy of representative compounds from different immunophilin ligand series in protecing retinal gangiou cell axons from degeneration following optic nerve transection is set forth in Table V.

[3] = system: aged mice; test: Morris watermaze, spatial learning and memory in aged rodents; format: in vivo, C57BL/6N-Nia mice; conditions: aged impaired mice, 10 mg/kg daily, retention testing after 3 weeks of dosing
Excerpt: The Morris watermaze is widely used for assessing spatial memory formation and retention in experimental animals. The test deoends on the animal's ability to utilize spatial visual information in order to locate a submerged escape platform in a water tank. It is important that the tank itself be as devoid of specific visual features as possible—thus, it is always circular in shape, the sides are kept smooth and in uniform dull colors, and the water is rendered opacue with nontoxic watercolour pigment or powdered milk. This is to ensure that the animal navigates only by the use of more distant visual cues, or by the use of intra-maze cues specifically provided by the experimenter. The animals' path, speed, and swim time are tracked with a ceiling camera for lacer computerized analysis. Over the course of several successive trials, spatial learning can therefore be defined as a drop of distance swum, or time elapsed, from placement in the tank until escape onto the invisible platform. The procedure involved using three-month old (young) and 18-19 month old male C57BL/6N-Nia (aged) mice which habituated to the well known and conventional Morris watermaze during a 4 trials/day, 3-4 day visible platform training phase. […] Swim Distances (cm) were analyzed in a 7×5 ANOVA including Groups and Blocks (1-5) as factors in the analysis, treating Blocks as a repeated measure.

[4] = Clearance (Table V comments); format: in vitro ADME
[5] = system: retinal ganglion cells and optic nerve axons; test: In vivo retinal ganglion cell and optic nerve axon tests after optic nerve transection, 14 or 28 day treatment, sacrifice at 90 days; design: species or system Sprague Dawley rats; conditions: for RGC Counts: mean density ± SEM of Fluoro-gold labeled RGC in 400 μm × 400 μm gridfields; for ON Axon density: mean ± SEM of RT97 labeled axons in 200 μm × 200 μm region; for increased ON axon density: adjusted for optic nerve diameter; for ON axon Count: calculated by multiplying axonal density by ON area; for Proximal optic nerve myclin basic protein Density: ± SEM, 20X analysis of % areal coverage
Excerpt: Complete transection of the optic nerve 5 mm from the eyeball produces massive degeneration of retinal ganglion cells, representing loss of >87% of the normal ganglion cell population 90 days after the injury (Table 1). Few spared fluorogold pre labeled ganglion cells are present in vehicle treated cases (large-white figures) among a population of small microglia that digest the debris of the degenerating cells and take up the fluorogold label (FIG. 3A).
90 days after transection few ganglion cell axons remain within the optic nerve (FIG. 4B), representing only 5.6% of the normal population. The loss of axons reflects both the death of retinal ganglion cells and the regression or “dying back” of the axons of ˜70% of the small surviving ganglion cell population into the retina itself (Table 1).
Myelin basic protein immunchistochemistry labels fascicles (darker labeled ‘islands’) of myelinated axons in the normal optic nerve (FIG. 6A, upper left). 90 days after transection extensive degeneration of myelin is evident in vehicle treated cases, characterized by the loss of fascicular organization and the appearance of numerous large dense degenerating myelin figures (FIG. 6B, upper right).
Complete transection of the optic nerve leads to degeneration of the distal segments (axon fragments disconnected from the ganglion cell bodies), and the degeneration of their myelin sheaths.
All eyes and optic nerves stumps were removed.

[6] = system: streptozotocin-induced diabetic rat; test: Streptozotocin-induced diabetic sensory neuropathy, hot plate and tail flick; format: in vivo, Male Wistar rats; conditions: lesioned animals treated for 6 weeks at 10 mg/kg s.c.
Protocol: The procedure involved using Male Wistar rats which were given a single injection of streptozotocin (65 mg/kg i.v.). Blood glucose levels were determined weekly for the first three weeks and on the last week of the experiment. Animals were evaluated weekly for signs of sensory neuropathy using the conventional hot plate and tail flick apparatus test procedures.

[7] = system: retinal ganglion cells; test: Example 17: optic nerve transection, GPI-1046 for 28 days, sacrifice at 90 days; format: in vivo, Sprague Dawley rats; conditions: 10 mg/kg/day s.c. for 28 days
Excerpt: Transection of the mammalian optic nerve results in a brief period of abortive regeneration, but the majority of axotomized neurons die and the axons from many persisting ganglion cells die back beyond the optic nerve head.

[8] = system: retina; test: Streptozotocin induced diabetes, retinal neovascularization and neuronal loss; format: in vivo
[9] = 14 days GPI 1046, 90 days after transection
[10] = 28 days GPI 1046, 90 days after transection
[11] = 28 day treatment beginning 8 weeks after onset of streptozotocin induced diabetes

CCC(C)(C)C(=O)C(=O)N1CCC[C@H]1C(=O)OCCCc1cccnc1 [GPI 1046, 3-(3-pyridyl) -1-propyl (2s) -1-(3,3-dimethyl-1,2-dioxopentyl) -2-pyrrolidinecarboxylate]
protection of retinal ganglion cells (fluorogold labeled cell density) ([1]; 10 mg/kg s.c. 1 hour prior to ischemia and 10 mg/kg/day for next four days, 28 days after ischemia): noticeable protection of a large proportion of the vulnerable ganglion cell population | density of degenerating myelin figures ([1]; 28 days after 1 hour retinal ischemic episode): dramatically decreased | protection of optic nerve axons from ischemic degeneration ([1]; 28 days after 1 hour retinal ischemic episode, toluidine blue staining): protected the majority of optic nerve axons from degeneration | RT97 + RGC axon density 14 days after ON transection (% ON axons rescued) [2]: 60.5% ± 3.9 SEM | spatial memory performance (swim distance, retention testing) [3]: significantly enhanced spatial memory performance | Clearance [4]: 63.8 µL/min | RGC Counts ([5]; 14 days GPI 1046 10 mg/kg/day sc, 90 days after transection): small but not significant increase | % RGCs Rescued [5, 9]: 5.3% | % surviving RGCs with ON axons [5, 9]: 33.6% | ON head area (% sham) [5, 9]: 76% | Spared RGC population [5, 9]: 20,275 | ON Axon density [5, 9]: 569 ± 23 | increased ON axon density ([5]; 14 days GPI 1046): 1.5X | ON axon Count ([5]; 14 days GPI 1046): 6820 | Distal optic nerve stump shrinkage ([5]; 14 days GPI 1046, cross sectional area compared to sham control): did not protect against shrinkage of the distal stump | Distal optic nerve myclin base protein Density, loss ([5]; 14 days GPI 1046, cross sectional area multiplied by myelin density): slightly increase the density of myelin | Proximal optic nerve myclin basic protein Density ([5]; 14 days GPI 1046): 1.6 ± 3.0 SEM % recovery | RGC Counts ([5]; 28 days GPI 1046 10 mg/kg/day sc, 90 days after transection): 67.9 ± 5.8 | % surviving RGCs with ON axons [5, 10]: 81.4% | ON head area (% sham) [5, 10]: 95%* | Spared RGC population [5, 10]: 28,096* | ON Axon density [5, 10]: significant increase in the density of large, and particularly medium and small caliber optic nerve axons | increased ON axon density ([5]; 28 days GPI 1046): 5.0X | ON axon Count ([5]; 28 days GPI 1046): 22,861* | Distal optic nerve stump, less shrinkage ([5]; 28 days GPI 1046, cross sectional area compared to sham control): prevented cross sectional shrinkage | Proximal optic nerve myclin basic protein Density ([5]; 28 days GPI 1046): 70 ± 6.3 SEM % recovery | protection of optic nerve axons ([5]; first 14 days GPI 1046, proximal stump, 90 days after transection): 5.3% | hot plate and tail flick latency [6]: improvement in latency | ganglion cell population spared (perikaryal neuroprotection) ([7]; 90 days after transection): 25% | preservation of axons in the proximal stump of the transected nerve ([7]; RT97 neurofilament immunohistochemistry): preserved the axons of virtually ali croteczed neurons | loss of neurons in the INL and GCL ([8]; 28 day treatment beginning 8 weeks after onset of diabetes, compared to streptozotocin/vehicle controls): appeared to decrease the loss of neurons in both the INL and GCL | neovascularization in the PR, ONL, OPL and INL [8, 11]: reduced neovascularization | neuronal loss in the ONL [8, 11]: did not appear to protect against neuronal loss in the ONL
